# Measurements reported in patent publication US9023788B2, “Methods compounds and pharmaceutical compositions for treating anxiety and mood disorders” (New York University, priority 2010, dated 2015).
# Entries after “also recorded” stand apart in the source; their conditions may differ. Read-outs that look alike come from different tables or passages of the source.
# Experiments:
# [1] = tested on: Swiss Webster male mice; experiment: Open field motor activity after ivt. infusion; type: in vivo, mouse; details: 15 min post infusion; 6FNE 3 nmoles ivt.
# Method: Open field motor activity: Implanted mice were placed singly in an open field (46×46×33 cm clear Plexiglas) and permitted to explore freely and habituate for 60 min. The animals were then either left undisturbed in the field or removed and infused with either vehicle or 6FNE (3 nmoles) and replaced in the field for a further 15 min. For comparative purposes a further group of implanted animals, similarly habituated to the field, was given an i.p. injection of d-amphetamine (5 mg/kg) prior to the final 15 min exposure. Movement in the field was videorecorded and was subsequently rated blind for the number of quadrants entered as well as the amount of time spent not touching the walls (“time in the center of the field”).
# [2] = tested on: Swiss Webster male mice; experiment: Observation for sedation and signs of toxicity; type: in vivo, mouse; details: intracerebral 6FNE or peripheral dp6FNE, range of behavioral tests
# Excerpt: Sedation interferes with behavioral performance and is therefore a detrimental side effect to the treatment of major depressive illness in humans.
# Although dp6FNE was designed to be a temporary treatment, it was of interest to determine how long it would remain effective if given repeatedly.
# [3] = tested on: brain α-adrenoceptors; details: cited from earlier work
# [4] = tested on: Fos expression in LC, PVH, lateral septal nucleus and NAC; details: stimulation or blockade of LC α1-receptors (Stone et al. 2011); cited from earlier work
# [5] = tested on: Fos expression in LC, PVH, lateral septal nucleus and NAC; experiment: Fos immunohistochemistry in stress- and motivation-related brain regions; type: in vivo, mouse; details: 6FNE 3 nmoles ivt.
# Method: At 70 min after drug infusion all animals were deeply anesthetized with a combination of isoflurane and urethane (2.2 g/kg, i.p.) and perfused intracardially with 4% paraformaldehyde for subsequent immunohistochemistry and histological examination of the cannula tip with respect to the 4th ventricle.
# Immunohistochemistry: Methods used for single and double-label Fos and Fos+tyrosine hydroxylase immunohistochemistry have been described in detail elsewhere (Stone, et al., Brain Research (2009) 1291:21-31). In brief, at 70 min after drug infusion deeply anesthetized (isoflurane plus urethane, 2.2 g/kg) mice were perfused intracardially with saline (25 ml) and 4% paraformaldehyde (45 ml), and the sucrose-treated brains were sectioned at 35 p and stained either singly for Fos (PVH, lateral septal nucleus, shell of nucleus accumbens (NAC)) or doubly for Fos and tyrosine hydroxylase (LC). Rabbit anti-fos (Oncogene Science 1:20,000) and chicken anti-tyrosine hydroxylase (Novus Biologicals, 1:5,000) were primary antibodies. Single-label staining involved nickel intensified-diaminobenzidine localization of the secondary biotinylated antibody and avidin-biotin-peroxidase complex. Double-label staining involved the use of Alexa-488 labeled secondary anti-rabbit and Alexa-594 labeled secondary anti-chicken antibodies. […] In all sections, to preclude biasing in the placement of counting frames, large frames comprising the total two dimensional extent of the target structures were counted for every Fos-positive cell by ImageJ. Double-labeled LC cells were defined as those having a fluorescently labeled cytoplasm (TH) and nucleus (Fos) greater than twice background fluorescence.
# [6] = in vivo; cited from earlier work
# [7] = tested on: Swiss Webster male mice; experiment: Acute forced swim test (Porsolt); type: in vivo, mouse
# [8] = tested on: Swiss Webster male mice; experiment: LPS model of depression (anhedonia); type: in vivo, mouse
# Method: 1LPS model of depression (anhedonia): A modification of the Frenois et al (2007) model of LPS-induced anhedonia in the mouse was used to obtain a non-motoric index of depressed behavior. In this model, trained mice show a marked decrease in preference for a sweet solution 24-48 h after a systemic dose of LPS (830 μg/kg, i.p.), a time when they have recovered from the sickness behavior and anorexia caused by the acute effects of the toxin. For the model, the animals were first implanted with 4th ventricular cannulas as above and, during the recovery period, trained to drink diluted sweetened condensed milk solution (Magnolia 1:3 v:v milk:tap water) by 15 min presentations every other day for 7-10 d. […] Animals given i.p. injections were dosed 14, 12 and 0.5 h prior to the last test.
# [9] = tested on: Swiss Webster male mice; experiment: Repeated open space forced swim (RFS) test; details: for distance swum versus vehicle / immobility versus vehicle: acute ivt. 6FNE or DEX; for immobility versus vehicle: 10 mg/kg; for overall effect of antagonist pretreatment on distance swum / overall effect of antagonist pretreatment on immobility: prazosin 5 mg/kg or atipamezole 0.5 mg/kg i.p.
# Method: (§1) In experiment on chronic administration, a daily dose of 0.5 mg/kg in the same vehicle was administered for 11 d.
# (§2) Infusion procedure. All experiments were performed between 1000 and 1400 hr. […] A total of 350 n1 of solution was infused at 100 nl/min over a 3.5 min period with the cannula remaining in place for 30 seconds after infusion. The animal was then subjected to the behavioral tests described below making the interval between the start of infusion and start of behavioral test 4.5-5 min. […] All drugs were prepared freshly each day in saline.
# In this procedure, mice are swum for 15-20 min/d for 4 d in rat tub cages (24×43×23 cm, w×h×l) filled with 13 cm high luke-warm water (32-34° C.) and thereafter once or twice a week. […] In the present experiment, the animals were matched on immobility level of the 4th swim into vehicle and drug groups and infused ivt. just prior to the 5th swim. Groups given i.p. injections were dosed initially 5 min after the 4th swim and finally 30 min prior to the 5th swim. Discs were rated as above on immobility and distance swum (number of quadrants entered).
# [10] = tested on: Swiss Webster male mice; experiment: Tail suspension test; type: in vivo, mouse; details: for immobility versus vehicle: acute ivt. 6FNE or DEX, 10 mg/kg
# Method: as §1, §2
# Tail suspension test: The procedure of Stem, et al., Psychopharmacology 1985; 85: 367-370 was used. Immediately following intraventricular infusion or 30 min after the third i.p. injection, the animals were taped by the tail 72 cm above a padded platform for 6 min during which time they were videorecorded. Disks were subsequently rated blind as above for times immobile during the last 4 min of the test.
# [11] = tested on: α2-adrenoceptors; details: atipamezole 0.5 mg/kg; cited from earlier work
# [12] = tested on: α2-adrenoceptors; details: cited from earlier work
# [13] = tested on: mice; details: months of chronic treatment (Doze et al. 2009); cited from earlier work
# [14] = tested on: mice; details: given chronically in the drinking water; cited from earlier work
# [15] = tested on: handling-stressed mice; experiment: Home cage activity after handling and injection stress; type: in vivo, mouse; details: acute i.p. dp6FNE 1 mg/kg in the presence of phentolamine; cirazoline 0.1 mg/kg; FIG. 3
# Method: FIG. 3 depicts the effect of acute i.p. dp6FNE (1 mg/kg) or cirazoline (0.1 mg/kg), (both N=1), on home cage activity in terms of rearing and ambulation, Veh (N=12).
# It is known that peripheral administration of α1-agonists without phentolamine impairs exploratory behavior in the open field (Yang, et al., J Pharmacol exp Ther 1990; 255: 1064-1070).
# [16] = tested on: mice; details: months of chronic treatment (Doze et al. 2009); cited from earlier work; remark: listed apart in the source
# [17] = tested on: cortical α1-adrenoceptors; details: prazosin 5 mg/kg; cited from earlier work
# [18] = overall effect across depression tests
# [19] = 5th swim, 6FNE ivt. peak dose, DMI subacute i.p. 10 mg/kg
# [20] = 5th swim, DMI subacute i.p. 10 mg/kg
smiles,measurement,setting,value
"NCC(O)c1cc(O)c(O)cc1F (stereo not shown) [6FNE, 6-fluoronorepinephrine]",time in the center of the field,[1],restored this behavior back to the level of the non-handled controls; also recorded: complete rescue
same,total quadrants entered,[1],no change in activity compared to the non-handled animals; also recorded: completely rescued the activity
same,sedation,[2],no sedative effect
same,agonist efficacy,[3],only known selective full agonist
same,neural activity of the LC measured from c-Fos expression,[4],virtually complete cessation of the neural activity
same,Fos expression in LC,[5]; [18],significant overall reduction
same,Fos expression in PVH,[5]; [18],significant overall reduction
same,Fos expression in lateral septal nucleus,[5]; p<0.05,overall increase
same,Fos expression in NAC,[5]; p<0.1,overall increase
same,passage of the blood brain barrier / uptake by the brain,[6],does not pass the blood brain barrier
same,"climbing duration, overall effect","[7]; ivt. 6FNE dose-response, one-way ANOVA",failed to show statistical significance
same,immobility versus vehicle,"[7]; second swim, 6FNE ivt. peak dose 3 nmoles, DMI subacute i.p. 10 mg/kg",differed significantly from vehicle
same,sucrose preference,[8]; acute ivt. 6FNE 48 h after LPS 830 μg/kg i.p.,rescued by 6FNE
same,sucrose intake,[8]; acute ivt. 6FNE in LPS-pretreated animals,inverted-U-shaped increase
same,"distance swum, % vehicle control",[9]; [19],193.4±22.8%
same,"immobility, % vehicle control",[9]; [19],36.7±9.2%
same,distance swum versus vehicle,[9]; [20],borderline increase in distance swum
same,immobility versus vehicle,[9]; [20],only 6FNE was effective; also recorded: dose-dependently reduced immobility
same,antidepressant response compared with ivt PE,"[9]; single ivt. infusion 0, 1, 3, 10 nmoles, Example 4, expected",more rapid or greater antidepressant response than PE
same,"immobility, % vehicle control","[10]; 6FNE ivt. 3 nmoles, DMI subacute i.p. 10 mg/kg",24.7±7.8%
same,immobility versus vehicle,[10]; DMI subacute i.p. 10 mg/kg,equally effective; also recorded: significant overall reduction in immobility
CCC1(c2cnc[nH]2)Cc2ccccc2C1 [atipamezole],overall effect of antagonist pretreatment on distance swum,[9],no significant overall action
same,overall effect of antagonist pretreatment on immobility,[9],no significant overall effect
same,blockade of sedative and hypothermic effects of a low dose of dexmedetomidine,[11],approximately 70%
same,effect of coinfused antagonist on anti-immobility effect of 6FNE,[10]; 6FNE 3 nmoles + antagonist 1 nmole ivt.,totally abolished the effect of 6FNE
same,effect of antagonist alone on immobility (antagonist+vehicle versus vehicle-only),[10]; antagonist 1 nmole ivt.,had no effect in this group
same,affinity for respective receptor,[12],low nanomolar affinities
c1ccc(C2CC2)c(OCC2=NCCN2)c1 [cirazoline],anxiety measured by behavioral inhibition,[13],failed to affect anxiety
same,antidepressant effect,[14],significant antidepressant effects in the forced swim test
same,home cage exploration / behavioral inhibition after handling and injection stress,[15],not effective in reducing behavioral inhibition
same,agonist efficacy,[3],partial agonists
same,anxiety measured by behavioral inhibition,[16],failed to affect anxiety
Cc1cccc([C@H](C)c2cnc[nH]2)c1C [dexmedetomidine],distance swum versus vehicle,[9]; [20],failed to have an overall significant effect
same,immobility versus vehicle,[9]; [20],only 6FNE was effective
same,immobility versus vehicle,"[9]; 5th swim, DMI subacute i.p. 10 mg/kg, listed as DEX",failed to have an overall significant effect on immobility
same,immobility at single dose,[9]; DEX 0.04 nmoles ivt.,borderline significant reduction in immobility
same,immobility versus vehicle,[10]; DMI subacute i.p. 10 mg/kg,equally effective
same,immobility versus vehicle,"[10]; DMI subacute i.p. 10 mg/kg, listed as DEX",significant dose-dependent decrease in immobility
same,affinity for respective receptor,[12],low nanomolar affinities
COc1cc2nc(N3CCN(C(=O)c4ccco4)CC3)nc(N)c2cc1OC [prazosin],overall effect of antagonist pretreatment on distance swum,[9],significant overall decrease of distance swum
same,overall effect of antagonist pretreatment on immobility,[9],significant overall increase of immobility
same,effect of antagonist alone on TST or RFS measures,[9]; prazosin alone 0.2 mg/kg,did not affect these measures
same,block of cortical α1-adrenoceptors by ex vivo binding,[17],30%
